Measured values from patent US10344054B2, “Angiotensin-1-receptor antagonists” (Ferring B.V., priority 2016, dated 2019).
Residues, ends and D or L forms follow the SMILES beside them.

Columns and labels:
[1] = biological target: T1, hAT1R (Homo sapiens, UniProt P30556); experiment: FLIPR calcium flux assay, Part II: antagonist activity against Angiotensin II; assay type: cell-based; conditions: for Emax: read-out: hAT1R Antagonist Efficacy Antag (%) Ave; for IC50: read-out: hAT1R Antagonist IC50 Ave; on hAT1R Antagonist Efficacy Antag (%) Ave: Angiotensin II 10 nM final concentration
T1 sequence (P30556 1-359): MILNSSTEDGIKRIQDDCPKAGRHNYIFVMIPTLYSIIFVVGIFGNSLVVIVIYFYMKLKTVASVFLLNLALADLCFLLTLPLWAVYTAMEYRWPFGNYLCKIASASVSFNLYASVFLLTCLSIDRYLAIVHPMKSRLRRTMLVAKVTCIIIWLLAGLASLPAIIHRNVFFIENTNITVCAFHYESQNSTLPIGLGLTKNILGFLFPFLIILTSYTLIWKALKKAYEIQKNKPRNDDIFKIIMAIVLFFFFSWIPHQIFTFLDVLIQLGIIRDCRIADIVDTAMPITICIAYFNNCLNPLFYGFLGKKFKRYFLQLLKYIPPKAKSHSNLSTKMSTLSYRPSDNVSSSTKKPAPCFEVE
Description: (§1) AT1 receptor (AT1R) agonists increase intracellular flux of calcium ions. AT1R antagonists can reduce the agonist effect. […] Compounds were first tested for agonism (Part I) followed by addition of the AT1R agonist angiotensin II to test for antagonist activity (Part II). This assay used a stable hAT1R expressing cell line (ChanTest hAT1R; ChanTest Corp A628). Intracellular flux of calcium in response to agonist was measured through real-time measurement of fluorescence induced through the interaction of Ca2+ (released from intracellular stores) and calcium-sensitive dye. In Part I, cells were exposed to varying concentrations of test compounds and immediately measured for agonist activity (EC50 and Efficacy).
(§2) ChanTest hAT1R stable cells were maintained in Ham's F12 containing 10% (v/v) heat inactivated fetal bovine serum (FBS-HI), 4 mM Glutamax, 1% NEAA, 50 ng/mL plasmocin, 400 μg/mL G418 at 37° C. under 5% CO2 in a humidified atmosphere.
(§3) For FLIPR assay, ChanTest hAT1R cells were trypsinized with 6 ml of Trypsin EDTA solution and harvested in phenol-red free DMEM containing 10% FBS-HI, 4 mM Glutamax and counted, spun down and resuspended in the same medium. The cell suspension was added to the wells of 384-well black PDL clear bottom plates at 2.5×10^4 cells/well, 20 μl/well.
(§4) Preparation of Loading Buffer:
(§5) • Loading Buffer: 1 vial of Calcium 5 Bulk Assay reagent was dissolved in 100 ml of 1× HBSS-20 mM Hepes buffer. • Probenecid was resuspended at 1 M in 1 M NaOH. Once the probenecid had gone into solution, an equal volume of H2O was added to make a solution of 500 mM followed by a 1:100 dilution in the Loading Buffer for a working concentration of 5 mM. The pH was adjusted to 7.4 using 1 M NaOH. Loading the Cells with Loading Buffer • Cell plates were removed from the incubator and 25 μl of Loading Buffer containing probenecid (5 mM) added to each well. • Plates were incubated for 1 hour at 37° C. under 5% CO2 in a humidified atmosphere. […] The remaining steps of the assay were carried forward by FLIPR Tetra. A baseline reading was taken at 1-second (s) intervals for 10 s followed by the addition of 5 μl of 10× compounds. The compound-induced fluorescence signal was then measured for 3 minutes with readings taken at 1-s intervals. • The cell plate was removed from the FLIPR and set aside for an additional 17 minutes. • The cell plate was then transferred back to the FLIPR Tetra, along with the 384 well Angiotensin II agonist dilution plate. A baseline reading was taken at 1-second (s) intervals for 10 seconds, followed by the addition of 5.5 μl of 10× Angiotensin II agonist. The agonist-induced fluorescence signal was then measured for 3 minutes with readings taken at 1-s intervals. • Overall, each well in the FLIPR assay was composed of the following components in a total volume of 55.5 μl:
(§6) Time-course results from the FLIPR Calcium 5 assay were expressed as relative fluorescence light units (RFU). The maximum minus minimum values (Max−Min) were used to quantify the strength of the signal. Mean RFU were calculated from replicate values and plotted on the y-axis versus compound concentration on a logarithmic scale on the x-axis, and a single-binding site, four parameter concentration response model: (MIN+((MAX−MIN)/(1+((EC50/x)^Hill)))), was used to perform non-linear regression analysis, generating concentration response curves. Reported parameters included agonist potency EC50 (the concentration causing half-maximal agonist response), antagonist potency IC50 (the concentration causing half-maximal inhibition of the agonist response for antagonist compounds) and efficacy (% MPE: percent of the maximal possible effect).

[2] = biological target: T1, hAT1R; experiment: FLIPR calcium flux assay, Part I: agonist activity; assay type: cell-based; conditions: ChanTest hAT1R stable cells; % MPE, percent of the maximal possible effect; read-out: hAT1R Agonist Efficacy Agonist (%) Ave
Description: as §1, §2, §3, §4, §5, §6

CNCC(=O)N[C@@H](CCCNC(=N)N)C(=O)N[C@H](C(=O)N[C@@H](Cc1ccc(O)cc1)C(=O)N[C@@H](Cc1cscn1)C(=O)N[C@@H](Cc1c[nH]cn1)C(=O)N1CCC[C@H]1C(=O)N[C@H](Cc1ccccc1Cl)C(=O)O)C(C)C [Compound 24, Sar-Arg-Val-Tyr-(Ala(4-Thz))-His-Pro-(D-Phe(2-Cl))—OH] (HELM PEPTIDE1{[Sar].R.V.Y.[O=C([C@H](Cc1cscn1)N[*:1])[*:2]].H.P.[O=C(O)[C@@H](Cc1ccccc1Cl)N[*:1]]}$$$$V2.0) was tested, and the Emax [1] was 99%, the IC50 [1] was 7 nM and the Emax [2] was 4%.
Molecule CNCC(=O)N[C@@H](CCCNC(=N)N)C(=O)N[C@H](C(=O)N[C@@H](Cc1ccc(O)cc1)C(=O)N[C@H](C(=O)N[C@@H](Cc1c[nH]cn1)C(=O)N1CCC[C@H]1C(=O)N[C@H](Cc1ccccc1Br)C(=O)O)C(C)C)C(C)C [Compound 11, Sar-Arg-Val-Tyr-Val-His-Pro-(D-Phe(2-Br))—OH] (HELM PEPTIDE1{[Sar].R.V.Y.V.H.P.[O=C(O)[C@@H](Cc1ccccc1Br)N[*:1]]}$$$$V2.0) has an Emax [1] of 99%, an IC50 [1] of 8.7 nM and an Emax [2] of 4%.
Molecule CC[C@H](C)[C@H](NC(=O)[C@@H]1CCCN1C(=O)[C@H](Cc1c[nH]cn1)NC(=O)[C@@H](NC(=O)[C@H](Cc1ccc(O)cc1)NC(=O)[C@@H](NC(=O)[C@H](CCCNC(=N)N)NC(=O)CNC)C(C)C)[C@@H](C)CC)C(=O)O [Ref. Cpd. 1, Sar-Arg-Val-Tyr-Ile-His-Pro-Ile-OH, reference compound] has an Emax [1] of 99% and an Emax [2] of 42%.
CC(C)[C@H](NC(=O)[C@H](CCCNC(=N)N)NC(=O)CNC[C@H](O)[C@@H](O)[C@H](O)[C@H](O)CO)C(=O)N[C@@H](Cc1ccc(O)cc1)C(=O)N[C@H](C(=O)N[C@@H](Cc1c[nH]cn1)C(=O)N1CCC[C@H]1C(=O)N[C@H](Cc1csc2ccccc12)C(=O)O)C(C)C [Compound 38, Glac-Arg-Val-Tyr-Val-His-Pro-(D-(3-benzothienyl)alanine)-OH] (HELM PEPTIDE1{[O=C(CNC[C@H](O)[C@@H](O)[C@H](O)[C@H](O)CO)[*:2]].R.V.Y.V.H.P.[O=C(O)[C@@H](Cc1csc2ccccc12)N[*:1]]}$$$$V2.0) gave an Emax [1] of 101%, an IC50 [1] of 18.8 nM and an Emax [2] of 5%.
In the case of CNCC(=O)N[C@@H](CCCNC(=N)N)C(=O)N[C@H](C(=O)N[C@@H](Cc1ccc(O)cc1)C(=O)N[C@@H](Cc1ccc(N)cc1)C(=O)N[C@@H](Cc1c[nH]cn1)C(=O)N1CCC[C@H]1C(=O)N[C@H](Cc1ccccc1Cl)C(=O)O)C(C)C [Compound 20, Sar-Arg-Val-Tyr-Aph-His-Pro-(D-Phe(2-Cl))—OH] (HELM PEPTIDE1{[Sar].R.V.Y.[Nc1ccc(C[C@H](N[*:1])C(=O)[*:2])cc1].H.P.[O=C(O)[C@@H](Cc1ccccc1Cl)N[*:1]]}$$$$V2.0), the Emax [1] is reported as 99%, the IC50 [1] is reported as 5.2 nM and the Emax [2] is reported as 5%.
Work on CNCC(=O)N[C@@H](CCCNC(=N)N)C(=O)N[C@H](C(=O)N[C@@H](Cc1ccc(O)cc1)C(=O)N[C@H](C(=O)N[C@@H](Cc1c[nH]cn1)C(=O)N1CCC[C@H]1C(=O)N[C@H](Cc1ccccc1C#N)C(=O)O)C(C)C)C(C)C [Compound 5, Sar-Arg-Val-Tyr-Val-His-Pro-(D-Phe(2-CN))—OH] (HELM PEPTIDE1{[Sar].R.V.Y.V.H.P.[N#Cc1ccccc1C[C@@H](N[*:1])C(=O)O]}$$$$V2.0) yielded an Emax [1] of 100%, an IC50 [1] of 59.6 nM and an Emax [2] of 5%.
CNCC(=O)N[C@@H](CCCNC(=N)N)C(=O)N[C@H](C(=O)N[C@@H](Cc1ccc(O)cc1)C(=O)N[C@H](C(=O)N[C@@H](Cc1c[nH]cn1)C(=O)N1CCC[C@H]1C(=O)N[C@H](Cc1csc2ccccc12)C(=O)O)C1CCCCC1)C(C)C [Compound 35, Sar-Arg-Val-Tyr-Chg-His-Pro-(D-(3-benzothienyl)alanine)-OH] (HELM PEPTIDE1{[Sar].R.V.Y.[O=C([C@@H](N[*:1])C1CCCCC1)[*:2]].H.P.[O=C(O)[C@@H](Cc1csc2ccccc12)N[*:1]]}$$$$V2.0) gave an Emax [1] of 100%, an IC50 [1] of 14.3 nM and an Emax [2] of 6%.
CNCC(=O)N[C@@H](CCCNC(=N)N)C(=O)N[C@H](C(=O)N[C@@H](Cc1ccc(O)cc1)C(=O)N[C@H](C(=O)N[C@@H](Cc1c[nH]cn1)C(=O)N1CCC[C@H]1C(=O)N[C@H](Cc1ccccc1-c1ccccc1)C(=O)O)C1CCCCC1)C(C)C [Compound 36, Sar-Arg-Val-Tyr-Chg-His-Pro-(D-Phe(2-Ph))—OH] (HELM PEPTIDE1{[Sar].R.V.Y.[O=C([C@@H](N[*:1])C1CCCCC1)[*:2]].H.P.[O=C(O)[C@@H](Cc1ccccc1-c1ccccc1)N[*:1]]}$$$$V2.0) was tested, and the Emax [1] was 100%, the IC50 [1] was 26 nM and the Emax [2] was 13%.
CC(C)[C@H](NC(=O)[C@H](CCCNC(=N)N)NC(=O)CNC[C@H](O)[C@@H](O)[C@H](O)[C@H](O)CO)C(=O)N[C@@H](Cc1ccc(O)cc1)C(=O)N[C@H](C(=O)N[C@@H](Cc1c[nH]cn1)C(=O)N1CCC[C@H]1C(=O)N[C@H](Cc1ccccc1-c1ccccc1)C(=O)O)C(C)C [Compound 39, Glac-Arg-Val-Tyr-Val-His-Pro-(D-Phe(2-Ph))—OH] (HELM PEPTIDE1{[O=C(CNC[C@H](O)[C@@H](O)[C@H](O)[C@H](O)CO)[*:2]].R.V.Y.V.H.P.[O=C(O)[C@@H](Cc1ccccc1-c1ccccc1)N[*:1]]}$$$$V2.0) gave an Emax [1] of 101%, an IC50 [1] of 26.7 nM and an Emax [2] of 8%.
For CNCC(=O)N[C@@H](CCCNC(=N)N)C(=O)N[C@H](C(=O)N[C@@H](Cc1ccc(O)cc1)C(=O)N[C@H](C(=O)N[C@@H](Cc1c[nH]cn1)C(=O)N1CCC[C@H]1C(=O)N[C@H](Cc1ccccc1C)C(=O)O)C(C)C)C(C)C [Compound 9, Sar-Arg-Val-Tyr-Val-His-Pro-(D-Phe(2-Me))—OH] (HELM PEPTIDE1{[Sar].R.V.Y.V.H.P.[Cc1ccccc1C[C@@H](N[*:1])C(=O)O]}$$$$V2.0), the Emax [1] was 99%, the IC50 [1] was 13.9 nM and the Emax [2] was 4%.
CNCC(=O)N[C@@H](CCCNC(=N)N)C(=O)N[C@H](C(=O)N[C@@H](Cc1ccc(O)cc1)C(=O)N[C@@H](Cc1ccc(O)cc1)C(=O)N[C@@H](Cc1c[nH]cn1)C(=O)N1CCC[C@H]1C(=O)N[C@H](Cc1cccc2ccccc12)C(=O)O)C(C)C [Compound 12, Sar-Arg-Val-Tyr-Tyr-His-Pro-(D-1Nal)-OH] was tested, and the Emax [1] was 100%, the IC50 [1] was 3.4 nM and the Emax [2] was 5%.
In the case of CC(C)[C@H](NC(=O)[C@H](CCCNC(=N)N)NC(=O)CNC[C@H](O)[C@@H](O)[C@H](O)[C@H](O)CO)C(=O)N[C@@H](Cc1ccc(O)cc1)C(=O)N[C@H](C(=O)N[C@@H](Cc1c[nH]cn1)C(=O)N1CCC[C@H]1C(=O)N[C@H](Cc1ccccc1Cl)C(=O)O)C(C)C [Compound 29, Glac-Arg-Val-Tyr-Val-His-Pro-(D-Phe(2-Cl))—OH] (HELM PEPTIDE1{[O=C(CNC[C@H](O)[C@@H](O)[C@H](O)[C@H](O)CO)[*:2]].R.V.Y.V.H.P.[O=C(O)[C@@H](Cc1ccccc1Cl)N[*:1]]}$$$$V2.0), the Emax [1] is reported as 99%, the IC50 [1] is reported as 19.5 nM and the Emax [2] is reported as 6%.
